Experimental data from US20240058464A1 (Fortis Therapeutics, Inc., priority 2021, published 2024).

Experiments:
CD46 expression [1] = assay: CD46 expression by RNA-sequencing in unpaired pre-treatment and post-treatment tumor biopsies; type: in vivo, human
CD46 expression [2] = assay: CD46 expression by RNA-sequencing in paired tumor biopsies before and after therapy; settings: for CD46 expression diff (post minus pre) / Percent Change in CD46 expression / CD46 expression, Post-Treatment Biopsy / CD46 expression, Pre-Treatment Biopsy: paired biopsies; for CD46 expression, Post-Treatment Biopsy / CD46 expression, Pre-Treatment Biopsy: RNA-seq log2-transformed counts;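 on all read-outs here: FFPE human tumor biopsies, exome-capture RNA-seq, reads aligned to GRCh37, counts normalized for GC content, length and depth, summed per gene, log2-transformed, samples paired before versus after therapy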
[3] = Prostate Cancer, Post minus Pre, unpaired biopsies, log2-transformed counts
[4] = Prostate Cancer, post- vs pre-treatment unpaired biopsies
[5] = Prostate Cancer, post-treatment biopsies, unpaired, RNA-seq log2-transformed normalized counts
[6] = Breast Cancer, Post minus Pre, unpaired biopsies, log2-transformed counts
[7] = Breast Cancer, post- vs pre-treatment unpaired biopsies
[8] = Breast Cancer, post-treatment biopsies, unpaired, RNA-seq log2-transformed normalized counts
[9] = Colorectal Cancer, Post minus Pre, unpaired biopsies, log2-transformed counts
[10] = Colorectal Cancer, post- vs pre-treatment unpaired biopsies
[11] = Colorectal Cancer, post-treatment biopsies, unpaired, RNA-seq log2-transformed normalized counts
[12] = Endocrine Tumor, Post minus Pre, unpaired biopsies, log2-transformed counts
[13] = Endocrine Tumor, post- vs pre-treatment unpaired biopsies
[14] = Endocrine Tumor, post-treatment biopsies, unpaired, RNA-seq log2-transformed normalized counts
[15] = Esophageal Cancer, Post minus Pre, unpaired biopsies, log2-transformed counts
[16] = Esophageal Cancer, post- vs pre-treatment unpaired biopsies
[17] = Esophageal Cancer, post-treatment biopsies, unpaired, RNA-seq log2-transformed normalized counts
[18] = Non-Small Cell Lung Cancer, post minus pre, unpaired biopsies
[19] = Non-Small Cell Lung Cancer, post vs pre, unpaired biopsies
[20] = Non-Small Cell Lung Cancer, post-treatment biopsies, log2-transformed RNA-seq counts

## C[C@]12CC[C@H](O)CC1=CC[C@@H]1[C@@H]2CC[C@]2(C)C(c3cccnc3)=CC[C@@H]12 [abiraterone]
CD46 expression [1]; [3]
  CD46 expression diff: −0.07
CD46 expression [1]; [4]
  CD46 expression Percentage change: −1.1%
CD46 expression [1]; [5]
  CD46 expression Post: 6.10
CD46 expression [2]; Prostate Cancer
  CD46 expression diff (post minus pre): 0.29
  Percent Change in CD46 expression: 5.1%

## Cc1nc(NC(=O)N2CCC[C@H]2C(N)=O)sc1-c1ccnc(C(C)(C)C(F)(F)F)c1 [alpelisib]
CD46 expression [1]; [6]
  CD46 expression diff: 0.13
CD46 expression [1]; [7]
  CD46 expression Percentage change: 2.0%
CD46 expression [1]; [8]
  CD46 expression Post: 6.67
CD46 expression [2]; Breast Cancer
  CD46 expression diff (post minus pre): −0.01
  Percent Change in CD46 expression: −0.1%
  CD46 expression, Post-Treatment Biopsy: 6.57

## CC(C)(C#N)c1cc(Cn2cncn2)cc(C(C)(C)C#N)c1 [anastrozole]
CD46 expression [1]; [6]
  CD46 expression diff: 0.06
CD46 expression [1]; [7]
  CD46 expression Percentage change: 0.9%
CD46 expression [1]; [8]
  CD46 expression Post: 6.41
CD46 expression [2]; Breast Cancer
  CD46 expression diff (post minus pre): 0.41
  Percent Change in CD46 expression: 6.7%
  CD46 expression, Post-Treatment Biopsy: 6.49
CD46 expression [2]; breast cancer, 15 of 19 subjects, FIG. 3
  subjects whose paired biopsies showed increased CD46 expression: 79%

## CC(O)(CS(=O)(=O)c1ccc(F)cc1)C(=O)Nc1ccc(C#N)c(C(F)(F)F)c1 (stereo not drawn) [bicalutamide]
CD46 expression [1]; [3]
  CD46 expression diff: −0.06
CD46 expression [1]; [4]
  CD46 expression Percentage change: −0.9%
CD46 expression [2]; Prostate Cancer
  CD46 expression diff (post minus pre): −0.24
  Percent Change in CD46 expression: −3.8%
  CD46 expression, Post-Treatment Biopsy: 6.08

## CO[C@H]1C(=O)[C@]2(C)[C@@H](OC)C[C@H]3OC[C@@]3(OC(C)=O)[C@H]2[C@H](OC(=O)c2ccccc2)[C@]2(O)C[C@H](OC(=O)[C@H](O)[C@@H](NC(=O)OC(C)(C)C)c3ccccc3)C(C)=C1C2(C)C [cabazitaxel]
CD46 expression [1]; [3]
  CD46 expression diff: 0.09
CD46 expression [1]; [4]
  CD46 expression Percentage change: 1.6%
CD46 expression [2]; Prostate Cancer
  CD46 expression diff (post minus pre): 0.07
  Percent Change in CD46 expression: 1.2%
  CD46 expression, Post-Treatment Biopsy: 5.93

## CCCCCOC(=O)Nc1nc(=O)n([C@@H]2O[C@H](C)[C@@H](O)[C@H]2O)cc1F [capecitabine]
CD46 expression [1]; Biliary Cancer, Post minus Pre, unpaired biopsies, log2-transformed counts
  CD46 expression diff: 0.10
CD46 expression [1]; Biliary Cancer, post- vs pre-treatment unpaired biopsies
  CD46 expression Percentage change: 1.8%
CD46 expression [1]; Biliary Cancer, post-treatment biopsies, unpaired, RNA-seq log2-transformed normalized counts
  CD46 expression Post: 5.87
CD46 expression [1]; [6]
  CD46 expression diff: −0.07
CD46 expression [1]; [7]
  CD46 expression Percentage change: −1.2%
CD46 expression [1]; [8]
  CD46 expression Post: 6.15
CD46 expression [1]; [9]
  CD46 expression diff: 0.05
CD46 expression [1]; [10]
  CD46 expression Percentage change: 0.8%
CD46 expression [1]; [11]
  CD46 expression Post: 6.43
CD46 expression [1]; [12]
  CD46 expression diff: 0.06
CD46 expression [1]; [13]
  CD46 expression Percentage change: 1.1%
CD46 expression [1]; [14]
  CD46 expression Post: 5.66
CD46 expression [1]; [15]
  CD46 expression diff: 0.05
CD46 expression [1]; [16]
  CD46 expression Percentage change: 0.8%
CD46 expression [1]; [17]
  CD46 expression Post: 6.02
CD46 expression [1]; Gastric Cancer, Post minus Pre, unpaired biopsies, log2-transformed counts
  CD46 expression diff: −0.04
CD46 expression [1]; Gastric Cancer, post- vs pre-treatment unpaired biopsies
  CD46 expression Percentage change: −0.7%
CD46 expression [1]; Gastric Cancer, post-treatment biopsies, unpaired, RNA-seq log2-transformed normalized counts
  CD46 expression Post: 5.73
CD46 expression [1]; Pancreatic Cancer, Post minus Pre, unpaired biopsies, log2-transformed counts
  CD46 expression diff: 0.07
CD46 expression [1]; Pancreatic Cancer, post- vs pre-treatment unpaired biopsies
  CD46 expression Percentage change: 1.2%
CD46 expression [1]; Pancreatic Cancer, post-treatment biopsies, unpaired, RNA-seq log2-transformed normalized counts
  CD46 expression Post: 5.93
CD46 expression [2]; Breast Cancer
  CD46 expression diff (post minus pre): −0.06
  Percent Change in CD46 expression: −0.9%
  CD46 expression, Post-Treatment Biopsy: 6.23
CD46 expression [2]; Colorectal Cancer
  CD46 expression diff (post minus pre): 0.06
  Percent Change in CD46 expression: 1.0%
CD46 expression [2]; Pancreatic Cancer
  CD46 expression diff (post minus pre): 0.16
  Percent Change in CD46 expression: 2.8%
  CD46 expression, Post-Treatment Biopsy: 5.98

## N.N.O=C([O-])C1(C(=O)[O-])CCC1.[Pt+2] [carboplatin]
CD46 expression [1]; Bladder Cancer, Post minus Pre, unpaired biopsies, log2-transformed counts
  CD46 expression diff: 0.14
CD46 expression [1]; Bladder Cancer, post- vs pre-treatment unpaired biopsies
  CD46 expression Percentage change: 2.3%
CD46 expression [1]; Bladder Cancer, post-treatment biopsies, unpaired, RNA-seq log2-transformed normalized counts
  CD46 expression Post: 6.12
CD46 expression [1]; [6]
  CD46 expression diff: −0.07
CD46 expression [1]; [7]
  CD46 expression Percentage change: −1.1%
CD46 expression [1]; [8]
  CD46 expression Post: 6.00
CD46 expression [1]; [9]
  CD46 expression diff: 0.59
CD46 expression [1]; [10]
  CD46 expression Percentage change: 10.3%
CD46 expression [1]; [11]
  CD46 expression Post: 6.35
CD46 expression [1]; [12]
  CD46 expression diff: 0.22
CD46 expression [1]; [13]
  CD46 expression Percentage change: 3.9%
CD46 expression [1]; [14]
  CD46 expression Post: 5.90
CD46 expression [1]; Endometrial Cancer, Post minus Pre, unpaired biopsies, log2-transformed counts
  CD46 expression diff: 0.01
CD46 expression [1]; Endometrial Cancer, post- vs pre-treatment unpaired biopsies
  CD46 expression Percentage change: 0.2%
CD46 expression [1]; Endometrial Cancer, post-treatment biopsies, unpaired, RNA-seq log2-transformed normalized counts
  CD46 expression Post: 5.83
CD46 expression [1]; [15]
  CD46 expression diff: −0.11
CD46 expression [1]; [16]
  CD46 expression Percentage change: −1.8%
CD46 expression [1]; [17]
  CD46 expression Post: 5.79
CD46 expression [1]; Head and Neck Squamous Cell Carcinoma, Post minus Pre, unpaired biopsies, log2-transformed counts
  CD46 expression diff: 0.11
CD46 expression [1]; Head and Neck Squamous Cell Carcinoma, post- vs pre-treatment unpaired biopsies
  CD46 expression Percentage change: 2.0%
CD46 expression [1]; Head and Neck Squamous Cell Carcinoma, post-treatment biopsies, unpaired, RNA-seq log2-transformed normalized counts
  CD46 expression Post: 5.69
CD46 expression [1]; Non-Small Cell Lung Cancer, Post minus Pre, unpaired biopsies, log2-transformed counts
  CD46 expression diff: −0.08
CD46 expression [1]; Non-Small Cell Lung Cancer, post- vs pre-treatment unpaired biopsies
  CD46 expression Percentage change: −1.2%
CD46 expression [1]; Non-Small Cell Lung Cancer, post-treatment biopsies, unpaired, RNA-seq log2-transformed normalized counts
  CD46 expression Post: 6.10
CD46 expression [1]; Ovarian Cancer, Post minus Pre, unpaired biopsies, log2-transformed counts
  CD46 expression diff: −0.01
CD46 expression [1]; Ovarian Cancer, post- vs pre-treatment unpaired biopsies
  CD46 expression Percentage change: −0.2%
CD46 expression [1]; Ovarian Cancer, post-treatment biopsies, unpaired, RNA-seq log2-transformed normalized counts
  CD46 expression Post: 5.73
CD46 expression [1]; [3]
  CD46 expression diff: −0.03
CD46 expression [1]; [4]
  CD46 expression Percentage change: −0.5%
CD46 expression [1]; [5]
  CD46 expression Post: 5.92
CD46 expression [2]; Breast Cancer
  CD46 expression diff (post minus pre): −0.08
  Percent Change in CD46 expression: −1.2%
  CD46 expression, Post-Treatment Biopsy: 6.06
  CD46 expression, Pre-Treatment Biopsy: 6.14
CD46 expression [2]; Endometrial Cancer
  CD46 expression diff (post minus pre): 0.30
  Percent Change in CD46 expression: 5.1%
  CD46 expression, Pre-Treatment Biopsy: 5.95
CD46 expression [2]; Non-Small Cell Lung Cancer
  CD46 expression diff (post minus pre): −0.06
  Percent Change in CD46 expression: −1.0%
  CD46 expression, Post-Treatment Biopsy: 6.07
CD46 expression [2]; Ovarian Cancer
  CD46 expression diff (post minus pre): 0.01
  Percent Change in CD46 expression: 0.2%
  CD46 expression, Post-Treatment Biopsy: 5.67
  CD46 expression, Pre-Treatment Biopsy: 5.66

## CCC1=C[C@@H]2CN(C1)Cc1c([nH]c3ccccc13)[C@@](C(=O)OC)(c1cc3c(cc1OC)N(C)[C@H]1[C@@](O)(C(=O)OC)[C@H](OC(C)=O)[C@]4(CC)C=CCN5CC[C@]31[C@@H]54)C2 [vinorelbine]
CD46 expression [1]; [6]
  CD46 expression diff: −0.13
CD46 expression [1]; [7]
  CD46 expression Percentage change: −2.0%
CD46 expression [1]; [8]
  CD46 expression Post: 6.24
CD46 expression [1]; [18]
  CD46 expression diff: −0.20
CD46 expression [1]; [19]
  CD46 expression Percentage change: −3.3%
CD46 expression [1]; [20]
  CD46 expression Post: 5.98

## O=P(O)(O)C(O)(Cn1ccnc1)P(=O)(O)O [zoledronic acid]
CD46 expression [1]; [6]
  CD46 expression diff: 0.41
CD46 expression [1]; [7]
  CD46 expression Percentage change: 6.4%
CD46 expression [1]; [8]
  CD46 expression Post: 6.78

## ado-trastuzumab emtansine
CD46 expression [1]; in vivo
  CD46 expression Percentage change: −0.8%
  CD46 expression Post: 6.20
  CD46 expression diff: −0.05

## aflibercept
CD46 expression [1]; [9]
  CD46 expression diff: 0.21
CD46 expression [1]; [10]
  CD46 expression Percentage change: 3.3%
CD46 expression [1]; [11]
  CD46 expression Post: 6.58

## denosumab
CD46 expression [1]; [6]
  CD46 expression diff: 0.40
CD46 expression [1]; [7]
  CD46 expression Percentage change: 6.2%
CD46 expression [1]; [8]
  CD46 expression Post: 6.82

## olaratumab
CD46 expression [1]; Sarcoma, Post minus Pre, unpaired biopsies, log2-transformed counts
  CD46 expression diff: 0.11
CD46 expression [1]; Sarcoma, post- vs pre-treatment unpaired biopsies
  CD46 expression Percentage change: 2.3%
CD46 expression [1]; Sarcoma, post-treatment biopsies, unpaired, RNA-seq log2-transformed normalized counts
  CD46 expression Post: 5.10

## pertuzumab
CD46 expression [1]; [6]
  CD46 expression diff: −0.08
CD46 expression [1]; [7]
  CD46 expression Percentage change: −1.3%
CD46 expression [1]; [8]
  CD46 expression Post: 6.25

## ramucirumab
CD46 expression [1]; [18]
  CD46 expression diff: −0.17
CD46 expression [1]; [19]
  CD46 expression Percentage change: −2.8%
CD46 expression [1]; [20]
  CD46 expression Post: 6.13
CD46 expression [1]; Non-Small Cell Lung Cancer, pre-treatment biopsies, log2-transformed RNA-seq counts
  CD46 expression Pre: 6.30
